From ChEMBL document CHEMBL1140386, “Pharmacophore-based design of HIV-1 integrase strand-transfer inhibitors” (J Med Chem, 2005)

Tests used:
[1] = target: T1, Human immunodeficiency virus type 1 integrase (Human immunodeficiency virus 1, UniProt Q7ZJM1)
Description: Strand transfer inhibitory activity against HIV-1 integrase

[2] = target: T1, Human immunodeficiency virus type 1 integrase; assay: In vitro concentration required to inhibit the HIV-1 integrase 3'-processing
[3] = target: T1, Human immunodeficiency virus type 1 integrase; assay: In vitro concentration required to inhibit the overall HIV-1 integrase strand transfer
MT4 [4] = assay: Cytotoxic concentration required to reduce MT-4 cell viability; type: functional; conditions: Homo sapiens
MT4 [5] = assay: Selectivity index was measured by the ratio of CC50/EC50; type: functional
[6] = system: Human immunodeficiency virus 1; assay: Effective concentration required to reduce HIV-1-induced cytopathic effect in MT-4 cells; type: functional, organism-based; conditions: Human immunodeficiency virus 1, MT4
[7] = target: T1, Human immunodeficiency virus type 1 integrase; assay: In vitro concentration required to inhibit the HIV-1 integrase strand transfer

T1 sequence (Q7ZJM1 whole entry): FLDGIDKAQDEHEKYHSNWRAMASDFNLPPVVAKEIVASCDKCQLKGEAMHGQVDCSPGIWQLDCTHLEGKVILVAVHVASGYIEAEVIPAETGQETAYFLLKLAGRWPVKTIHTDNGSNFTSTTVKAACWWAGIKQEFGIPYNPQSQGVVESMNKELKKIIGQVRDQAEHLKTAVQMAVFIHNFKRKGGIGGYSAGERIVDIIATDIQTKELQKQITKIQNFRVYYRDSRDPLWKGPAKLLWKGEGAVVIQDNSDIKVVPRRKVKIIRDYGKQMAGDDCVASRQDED

Row | SMILES | IC50 [1] | IC50 [2] | IC50 [3] | CC50 (MT4 [4]) | Selectivity index (MT4 [5]) | EC50 [6] | IC50 [7]
1 | O=C(O)C(=O)/C=C(\O)c1ccc(Oc2ccccc2)cc1 | 11.4 µM | – | – | – | – | – | –
2 | O=C(O)C(=O)/C=C(\O)c1cn(Cc2ccccc2)c2ccccc12 | – | 8.28 µM | 0.02 µM | > 78 µM | > 4 | 19.9 µM | 0.03 µM
3 | O=C(O)C(=O)/C=C(\O)c1cccc(Cc2ccccc2)c1 | 0.01 µM | – | – | – | – | – | –
4 | CCOC(=O)C(=O)/C=C(\O)c1cn(Cc2ccccc2)c2ccc(OC)cc12 | – | 162 µM | 0.15 µM | 29 µM | 5 | 6.07 µM | 0.68 µM
5 | O=C(O)C(=O)/C=C(\O)c1cn(Cc2ccccc2)c2ccc(Cl)cc12 | – | 0.97 µM | 0.01 µM | 37.2 µM | 8 | 4.78 µM | 0.1 µM
6 | COc1ccc2c(c1)c(/C(O)=C/C(=O)C(=O)O)cn2Cc1ccc(F)cc1 | – | 2.71 µM | 0.019 µM | 63.5 µM | 11 | 5.81 µM | 0.004 µM
7 | COc1ccc2c(c1)c(/C(O)=C/C(=O)C(=O)O)cn2Cc1ccccc1 | – | 2.16 µM | 0.017 µM | 86.4 µM | 16 | 5.32 µM | 0.021 µM
8 | CCOC(=O)C(=O)/C=C(\O)c1cn(Cc2ccccc2)c2ccc(Cl)cc12 | – | 10.2 µM | 0.22 µM | 34 µM | 8 | 4.5 µM | 0.03 µM
9 | CCOC(=O)C(=O)/C=C(\O)c1cn(Cc2ccc(F)cc2)c2ccccc12 | – | > 272 µM | 1.2 µM | 27.2 µM | 3 | 9.25 µM | 1.5 µM
10 | O=C(O)C(=O)/C=C(\O)c1ccsc1Cc1ccccc1 | 0.18 µM | – | – | – | – | – | –
11 | O=C(O)C(=O)/C=C(\O)c1cn(Cc2ccc(F)cc2)c2ccccc12 | – | 5.3 µM | 0.002 µM | > 74 µM | > 14 | 5.31 µM | 0.015 µM
12 | O=C(O)C(=O)/C=C(\O)c1cccc(Br)c1 | 2.5 µM | – | – | – | – | – | –
13 | O=C(O)C(=O)/C=C(\O)c1cc(OCc2ccccc2)cc(OCc2ccccc2)c1 | 0.1 µM | – | – | – | – | – | –
14 | CCOC(=O)C(=O)/C=C(\O)c1cn(Cc2ccccc2)c2ccccc12 | – | > 286 µM | 0.76 µM | 120 µM | 8 | 14.3 µM | 5.4 µM
15 | O=C(O)C(=O)/C=C(\O)c1cn(Cc2ccc(F)cc2)c2ccc(Cl)cc12 | – | 1.59 µM | 0.2 µM | 53.4 µM | 19 | 2.78 µM | 0.01 µM
16 | CCOC(=O)C(=O)/C=C(\O)c1cn(Cc2ccc(F)cc2)c2ccc(Cl)cc12 | – | 11.5 µM | 0.39 µM | 26.5 µM | 8 | 3.42 µM | 0.07 µM
17 | COc1cc(Cc2ccccc2)cc(/C(O)=C/C(=O)C(=O)O)c1 | 0.14 µM | – | – | – | – | – | –
18 | CCC(=O)C(=O)/C=C(\O)c1c[nH]c2ccc(Cl)cc12 | 6.9 µM | – | – | – | – | – | –
19 | CCOC(=O)C(=O)/C=C(\O)c1cn(Cc2ccc(F)cc2)c2ccc(OC)cc12 | – | 131 µM | 0.22 µM | 127 µM | 9 | 14.3 µM | 0.8 µM
20 | O=C(NCc1ccc(F)cc1)c1nc(N2CCCCS2(=O)=O)c2cccnc2c1O | – | 0.12 µM | 0.0005 µM | 2.15 µM | 457 | 0.0047 µM | 0.0025 µM
21 | O=C(/C=C(\O)c1c[nH]c2ccc(Cl)cc12)c1nc[nH]n1 | 2 µM | – | – | – | – | – | –

Now from value to compound, other results behind:

Row | IC50 [1] | SMILES | IC50 [2] | IC50 [3] | CC50 (MT4 [4]) | Selectivity index (MT4 [5]) | EC50 [6] | IC50 [7]
22 | 100 µM | CCCCOC(=O)C(=O)/C=C(\O)c1cccn1Cc1ccc(F)cc1 | – | – | – | – | – | –
23 | 0.1 µM | COc1ccc(Cc2ccccc2)cc1/C(O)=C/C(=O)C(=O)O | – | – | – | – | – | –
24 | 0.5 µM | O=C(O)C(=O)/C=C(\O)c1ccc(Cc2ccccc2)s1 | – | – | – | – | – | –
25 | 0.15 µM | COc1ccc(/C(O)=C/C(=O)C(=O)O)cc1Cc1ccccc1 | – | – | – | – | – | –
26 | 0.25 µM | O=C(O)C(=O)/C=C(\O)c1cccc(Cc2cccc(F)c2)c1 | – | – | – | – | – | –
27 | 100 µM | CC(C)OC(=O)C(=O)/C=C(\O)c1cccn1Cc1ccc(F)cc1 | – | – | – | – | – | –
28 | 0.22 µM | O=C(O)C(=O)/C=C(\O)c1cccn1Cc1ccccc1 | – | – | – | – | – | –
29 | 0.04 µM | NC(=O)C(=O)Nc1nc(C(=O)NCc2ccc(F)cc2)c(O)c2ncccc12 | – | – | – | – | – | –
30 | 100 µM | O=C(O)C(=O)/C=C(\O)c1ccnc2ccccc12 | – | – | – | – | – | –
